The molecules below were run against GDP-loaded KRAS G12D (Homo sapiens, UniProt P01116, G12D) (assay: KRAS G12D Probe Displacement Assay). Details: KRAS G12D 0.5 nM, biotinylated probe 2 4 nM; Table 6 letters; read-out: KRAS G12D Probe Displacement Assay IC50 (class).
Format: binding

GDP-loaded KRAS G12D, sequence (P01116 1-188 isoform P01116-2 G12D): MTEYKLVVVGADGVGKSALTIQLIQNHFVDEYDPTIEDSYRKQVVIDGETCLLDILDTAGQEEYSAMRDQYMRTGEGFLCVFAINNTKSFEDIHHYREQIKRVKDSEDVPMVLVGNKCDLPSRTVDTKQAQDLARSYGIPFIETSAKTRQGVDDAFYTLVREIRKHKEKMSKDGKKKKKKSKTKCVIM

SMILES	IC50 [nM]
Cc1cc(N)nc(-c2c(C(F)F)cc3c(N4CC5CCC(C4)N5)nc(OC[C@@]45CCCN4C[C@H](F)C5)nc3c2F)c1C(F)(F)F [Example E100, 6-(4-(3,8-diazabicyclo[3.2.1]octan-3-yl)-6-(difluoromethyl)-8-fluoro-2-(((2R,7aS)-2-fluorotetrahydro-1H-pyrrolizin-7a(5H)-yl)methoxy)quinazolin-7-yl)-4-methyl-5-(trifluoromethyl)pyridin-2-amine]	< 50
Nc1nc2c(-c3c(C(F)(F)F)cc4c(N5C6CCC5CNC6)nc(OC[C@@]56CCCN5C[C@H](F)C6)nc4c3Cl)ccc(F)c2s1 [Example E101, 4-(4-(3,8-diazabicyclo[3.2.1]octan-8-yl)-8-chloro-2-(((2R,7aS)-2-fluorotetrahydro-1H-pyrrolizin-7a(5H)-yl)methoxy)-6-(trifluoromethyl)quinazolin-7-yl)-7-fluorobenzo[d]thiazol-2-amine]	< 50
Nc1cc(Cl)c(C(F)(F)F)c(-c2c(Cl)cc3c(N4C5CCC4CNC5)nc(OC[C@@]45CCCN4C[C@H](F)C5)nc3c2F)n1 [Example E102, 6-(4-(3,8-diazabicyclo[3.2.1]octan-8-yl)-6-chloro-8-fluoro-2-(((2R,7aS)-2-fluorotetrahydro-1H-pyrrolizin-7a(5H)-yl)methoxy)quinazolin-7-yl)-4-chloro-5-(trifluoromethyl)pyridin-2-amine]	< 50
CN1C[C@H](F)C[C@]1(C)COc1nc(N2CC3CCC(C2)N3)c2cc(C(F)(F)F)c(-c3ccc(F)c4sc(N)nc34)c(F)c2n1 [Example E103, 4-(4-(3,8-diazabicyclo[3.2.1]octan-3-yl)-8-fluoro-2-(((2R,4R)-4-fluoro-1,2-dimethylpyrrolidin-2-yl)methoxy)-6-(trifluoromethyl)quinazolin-7-yl)-7-fluorobenzo [d]thiazol-2-amine]	< 50
N#Cc1c(N)sc2c(F)ccc(-c3c(C(F)(F)F)cc4c(N5CC6CCC(C5)N6)nc(OC[C@@]56CCCN5C[C@H](F)C6)nc4c3F)c12 [Example E104, 4-(4-(3,8-diazabicyclo[3.2.1]octan-3-yl)-8-fluoro-2-(((2R,7aS)-2-fluorotetrahydro-1H-pyrrolizin-7a(5H)-yl)methoxy)-6-(trifluoromethyl)quinazolin-7-yl)-2-amino-7-fluorobenzo[b]thiophene-3-carbonitrile]	< 50
Oc1cc(Cl)c(C(F)(F)F)c(-c2c(Cl)cc3c(N4CC5CCC(C4)N5)nc(OC[C@@]45CCCN4C[C@H](F)C5)nc3c2F)c1 [Example E105, 3-(4-(3,8-diazabicyclo[3.2.1]octan-3-yl)-6-chloro-8-fluoro-2-(((2R,7aS)-2-fluorotetrahydro-1H-pyrrolizin-7a(5H)-yl)methoxy)quinazolin-7-yl)-5-chloro-4-(trifluoromethyl)phenol]	< 50
N#Cc1c(N)sc2c(F)ccc(-c3c(Cl)cc4c(N5CC6CCC(C5)N6)nc(OC[C@@]56CCCN5C[C@H](F)C6)nc4c3F)c12 [Example E106, 4-(4-(3,8-diazabicyclo[3.2.1]octan-3-yl)-6-chloro-8-fluoro-2-(((2R,7aS)-2-fluorotetrahydro-1H-pyrrolizin-7a(5H)-yl)methoxy)quinazolin-7-yl)-2-amino-7-fluorobenzo[b]thiophene-3-carbonitrile]	< 50
Nc1cc(Cl)c(C(F)(F)F)c(-c2c(Cl)cc3c(N4C5CNCC4COC5)nc(OC[C@@]45CCCN4C[C@H](F)C5)nc3c2F)n1 [Example E107, 6-(4-(3-oxa-7,9-diazabicyclo[3.3.1]nonan-9-yl)-6-chloro-8-fluoro-2-(((2R,7aS)-2-fluorotetrahydro-1H-pyrrolizin-7a(5H)-yl)methoxy)quinazolin-7-yl)-4-chloro-5-(trifluoromethyl)pyridin-2-amine]	< 50
C#Cc1cc(N)nc(-c2c(Cl)cc3c(N4CC5CCC(C4)N5)nc(OC[C@@]45CCCN4C[C@H](F)C5)nc3c2F)c1C(F)(F)F [Example E108, 6-(4-(3,8-diazabicyclo[3.2.1]octan-3-yl)-6-chloro-8-fluoro-2-(((2R,7aS)-2-fluorotetrahydro-1H-pyrrolizin-7a(5H)-yl)methoxy)quinazolin-7-yl)-4-ethynyl-5-(trifluoromethyl)pyridin-2-aminp]	< 50
N#Cc1cc(N)nc(-c2c(Cl)cc3c(N4CC5CCC(C4)N5)nc(OC[C@@]45CCCN4C[C@H](F)C5)nc3c2F)c1C(F)(F)F [Example E109, 2-(4-(3,8-diazabicyclo[3.2.1]octan-3-yl)-6-chloro-8-fluoro-2-(((2R,7aS)-2-fluorotetrahydro-1H-pyrrolizin-7a(5H)-yl)methoxy)quinazolin-7-yl)-6-amino-3-(trifluoromethyl)isonicotinonitrile]	< 50
Oc1cc(F)c(C(F)(F)F)c(-c2c(F)cc3c(N4CC5CCC(C4)N5)nc(OC[C@@]45CCCN4C[C@H](F)C5)nc3c2F)c1 [Example E110, 3-(4-(3,8-diazabicyclo[3.2.1]octan-3-yl)-6,8-difluoro-2-(((2R,7aS)-2-fluorotetrahydro-1H-pyrrolizin-7a(5H)-yl)methoxy)quinazolin-7-yl)-5-fluoro-4-(trifluoromethyl)phenol]	< 50
CN1C[C@H](F)C[C@H]1COc1nc(N2CC3CCC(C2)N3)c2cc(C(F)(F)F)c(-c3ccc(F)c4sc(N)c(C#N)c34)c(F)c2n1 [Example E111, 4-(4-(3,8-diazabicyclo[3.2.1]octan-3-yl)-8-fluoro-2-(((2S,4R)-4-fluoro-1-methylpyrrolidin-2-yl)methoxy)-6-(trifluoromethyl)quinazolin-7-yl)-2-amino-7-fluoro benzo[b]thiophene-3-carbonitrile]	< 50
Cc1nc(N)nc(-c2c(Cl)cc3c(N4CC5CCC(C4)N5)nc(OC[C@@]45CCCN4C[C@H](F)C5)nc3c2F)c1C(F)(F)F [Example E112, 4-(4-(3,8-diazabicyclo[3.2.1]octan-3-yl)-6-chloro-8-fluoro-2-(((2R,7aS)-2-fluorotetrahydro-1H-pyrrolizin-7a(5H)-yl)methoxy)quinazolin-7-yl)-6-methyl-5-(trifluoromethyl)pyrimidin-2-amine]	< 50
C#Cc1cc(N)nc(-c2c(Cl)cc3c(N4C5CCC4CNC5)nc(OC[C@@]45CCCN4C[C@H](F)C5)nc3c2F)c1C(F)(F)F [Example E113, 6-(4-(3,8-diazabicyclo[3.2.1]octan-8-yl)-6-chloro-8-fluoro-2-(((2R,7aS)-2-fluorotetrahydro-1H-pyrrolizin-7a(5H)-yl)methoxy)quinazolin-7-yl)-4-ethynyl-5-(trifluoromethyl)pyridin-2-amine]	< 50
Cc1cc(O)cc(-c2c(Cl)cc3c(N4CC5CCC(C4)N5)nc(OC[C@@]45CCCN4C[C@H](F)C5)nc3c2F)c1C(F)(F)F [Example E114, 3-(4-(3,8-diazabicyclo[3.2.1]octan-3-yl)-6-chloro-8-fluoro-2-(((2R,7aS)-2-fluorotetrahydro-1H-pyrrolizin-7a(5H)-yl)methoxy)quinazolin-7-yl)-5-methyl-4-(trifluoromethyl)phenol]	< 50
C[C@@H](CN1C2CCC1CC(C#N)C2)Oc1nc(N2CC3CCC(C2)N3)c2cc(Cl)c(-c3ccc(F)c4sc(N)c(C#N)c34)c(F)c2n1 (stereo partly drawn) [Example E115, 8-((2S)-2-((7-(2-amino-3-cyano-7-fluorobenzo[b]thiophen-4-yl)-4-(3,8-diazabicyclo[3.2.1]octan-3-yl)-6-chloro-8-fluoroquinazolin-2-yl)oxy)propyl)-8-azabicyclo [3.2.1]octane-3-carbonitrile]	< 50
C[C@@H](CN1CCC(F)CC1)Oc1nc(N2CC3CCC(C2)N3)c2cc(Cl)c(-c3ccc(F)c4sc(N)c(C#N)c34)c(F)c2n1 [Example E116, 4-(4-(3,8-diazabicyclo[3.2.1]octan-3-yl)-6-chloro-8-fluoro-2-(((S)-1-(4-fluoropiperidin-1-yl)propan-2-yl)oxy)quinazolin-7-yl)-2-amino-7-fluorobenzo[b]thiophene-3-carbonitrile]	< 50
Cc1cc(N)nc(-c2cc3nc(OC[C@@]45CCCN4C[C@H](F)C5)nc(N4CC5CCC(C4)N5)c3cc2Cl)c1C(F)(F)F [Example E117, 6-(4-(3,8-diazabicyclo[3.2.1]octan-3-yl)-6-chloro-2-(((2R,7aS)-2-fluorotetrahydro-1H-pyrrolizin-7a(5H)-yl)methoxy)quinazolin-7-yl)-4-methyl-5-(trifluoromethyl)pyridin-2-amine]	< 50
Cc1cc(N)c(C#N)c(-c2c(Cl)cc3c(N4CC5CCC(C4)N5)nc(OC[C@@]45CCCN4C[C@H](F)C5)nc3c2F)c1I [Example E118, 2-(4-(3,8-diazabicyclo[3.2.1]octan-3-yl)-6-chloro-8-fluoro-2-(((2R,7aS)-2-fluorotetrahydro-1H-pyrrolizin-7a(5H)-yl)methoxy)quinazolin-7-yl)-6-amino-3-iodo-4-methylbenzonitrile]	< 50
Cc1cc(N)nc(-c2c(C#N)cc3c(N4CC5CCC(C4)N5)nc(OC[C@@]45CCCN4C[C@H](F)C5)nc3c2F)c1C(F)(F)F [Example E119, 7-(6-amino-4-methyl-3-(trifluoromethyl)pyridin-2-yl)-4-(3,8-diazabicyclo [3.2.1]octan-3-yl)-8-fluoro-2-(((2R,7aS)-2-fluorotetrahydro-1H-pyrrolizin-7a(5H)-yl)methoxy) quinazoline-6-carbonitrile]	< 50
Cc1cc2[nH]ncc2c(-c2c(Cl)cc3c(N4CC5CCC(C4)N5)nc(OC[C@@]45CCCN4C[C@H](F)C5)nc3c2F)c1Cl [Example E120, 4-(3,8-diazabicyclo[3.2.1]octan-3-yl)-6-chloro-7-(5-chloro-6-methyl-1H-indazol-4-yl)-8-fluoro-2-(((2R,7aS)-2-fluorotetrahydro-1H-pyrrolizin-7a(5H)-yl)methoxy)quinazoline]	< 50
CN1CCCC1(CC#N)COc1nc(N2CC3CCC(C2)N3)c2cc(C(F)(F)F)c(-c3ccc(F)c4sc(N)nc34)c(F)c2n1 (stereo not shown) [Example E121, 2-(2-(((7-(2-amino-7-fluorobenzo[d]thiazol-4-yl)-4-(3,8-diazabicyclo[3.2.1]octan-3-yl)-8-fluoro-6-(trifluoromethyl)quinazolin-2-yl)oxy)methyl)-1-methylpyrrolidin-2-yl)acetonitrile]	< 50

Reference: patent publication US20240140957A1, “BRIDGED COMPOUNDS AS KRAS G12D INHIBITOR AND DEGRADER AND THE USE THEREOF” (BeiGene Switzerland GmbH, priority 2021, published 2024)
